From PMC12891850 (Acta Pharmaceutica Sinica. B, 2025) come the findings set out here.

The assay deals with T1, aldehyde oxidase 1 (AOX1) (Homo sapiens, UniProt Q06278).
T1 sequence (Q06278 1-1338): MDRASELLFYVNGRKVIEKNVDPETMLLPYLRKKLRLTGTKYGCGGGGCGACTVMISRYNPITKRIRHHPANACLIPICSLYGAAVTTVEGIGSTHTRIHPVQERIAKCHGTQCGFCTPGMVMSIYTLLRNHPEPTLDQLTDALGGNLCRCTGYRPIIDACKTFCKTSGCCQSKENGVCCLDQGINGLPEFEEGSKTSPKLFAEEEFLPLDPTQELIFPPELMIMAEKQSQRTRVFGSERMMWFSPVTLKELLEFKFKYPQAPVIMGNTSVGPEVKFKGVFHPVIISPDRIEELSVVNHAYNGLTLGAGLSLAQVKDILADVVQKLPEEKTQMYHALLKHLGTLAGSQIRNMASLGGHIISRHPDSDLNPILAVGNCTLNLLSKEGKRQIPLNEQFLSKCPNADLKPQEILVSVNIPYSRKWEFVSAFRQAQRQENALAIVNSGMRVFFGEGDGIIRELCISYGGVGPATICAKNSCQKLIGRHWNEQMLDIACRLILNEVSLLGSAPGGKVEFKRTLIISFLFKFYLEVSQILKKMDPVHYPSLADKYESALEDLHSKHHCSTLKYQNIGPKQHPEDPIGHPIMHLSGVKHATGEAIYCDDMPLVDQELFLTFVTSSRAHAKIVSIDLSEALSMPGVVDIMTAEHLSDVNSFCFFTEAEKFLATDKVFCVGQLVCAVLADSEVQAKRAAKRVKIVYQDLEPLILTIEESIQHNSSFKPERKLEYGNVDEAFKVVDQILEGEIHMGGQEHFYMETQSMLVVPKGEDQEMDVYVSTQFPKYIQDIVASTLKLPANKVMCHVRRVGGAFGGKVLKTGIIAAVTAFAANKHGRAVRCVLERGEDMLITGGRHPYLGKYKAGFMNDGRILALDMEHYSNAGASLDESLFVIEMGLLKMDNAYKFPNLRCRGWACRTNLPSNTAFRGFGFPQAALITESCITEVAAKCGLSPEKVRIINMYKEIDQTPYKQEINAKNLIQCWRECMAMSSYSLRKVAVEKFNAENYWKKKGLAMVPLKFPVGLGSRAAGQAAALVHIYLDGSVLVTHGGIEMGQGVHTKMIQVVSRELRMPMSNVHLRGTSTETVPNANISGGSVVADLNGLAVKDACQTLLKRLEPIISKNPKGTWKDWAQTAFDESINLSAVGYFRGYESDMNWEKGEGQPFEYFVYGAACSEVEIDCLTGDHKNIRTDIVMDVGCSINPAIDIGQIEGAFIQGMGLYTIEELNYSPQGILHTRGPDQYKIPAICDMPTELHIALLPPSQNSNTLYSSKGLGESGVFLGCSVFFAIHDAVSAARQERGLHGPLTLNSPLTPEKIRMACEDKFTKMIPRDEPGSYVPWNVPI
Kind of assay: SPR. It is filed as binding.

Compound `CNC(=O)c1cc(Oc2ccc(NC(=O)Nc3ccc(Cl)c(C(F)(F)F)c3)c(F)c2)ccn1` [regorafenib] gave an equilibrium dissociation constant (Kd) of 42.7 µM.

What is called Kd is the concentration at which binding is half-saturated. Low readings indicate tighter binding, high ones weaker binding.
